Experimental findings from ChEMBL document CHEMBL4033673, “Conformational control in structure-based drug design” (Bioorg Med Chem Lett, 2017) are described below.

Assay [1] can be described thus: Displacement of (2S)-N-(2-phenylphenyl)-1-[2-[1-(tritritiomethyl)benzimidazol-2-yl]sulfanylacetyl]pyrrolidine-2-carboxamide from human OX1 receptor Ile408-Val mutant expressed on CHO cell membrane measured after 3 hrs by TopCount method.
In assay [2] the target is T1, Mineralocorticoid receptor (Homo sapiens, UniProt P08235).
T1 sequence (P08235 whole entry): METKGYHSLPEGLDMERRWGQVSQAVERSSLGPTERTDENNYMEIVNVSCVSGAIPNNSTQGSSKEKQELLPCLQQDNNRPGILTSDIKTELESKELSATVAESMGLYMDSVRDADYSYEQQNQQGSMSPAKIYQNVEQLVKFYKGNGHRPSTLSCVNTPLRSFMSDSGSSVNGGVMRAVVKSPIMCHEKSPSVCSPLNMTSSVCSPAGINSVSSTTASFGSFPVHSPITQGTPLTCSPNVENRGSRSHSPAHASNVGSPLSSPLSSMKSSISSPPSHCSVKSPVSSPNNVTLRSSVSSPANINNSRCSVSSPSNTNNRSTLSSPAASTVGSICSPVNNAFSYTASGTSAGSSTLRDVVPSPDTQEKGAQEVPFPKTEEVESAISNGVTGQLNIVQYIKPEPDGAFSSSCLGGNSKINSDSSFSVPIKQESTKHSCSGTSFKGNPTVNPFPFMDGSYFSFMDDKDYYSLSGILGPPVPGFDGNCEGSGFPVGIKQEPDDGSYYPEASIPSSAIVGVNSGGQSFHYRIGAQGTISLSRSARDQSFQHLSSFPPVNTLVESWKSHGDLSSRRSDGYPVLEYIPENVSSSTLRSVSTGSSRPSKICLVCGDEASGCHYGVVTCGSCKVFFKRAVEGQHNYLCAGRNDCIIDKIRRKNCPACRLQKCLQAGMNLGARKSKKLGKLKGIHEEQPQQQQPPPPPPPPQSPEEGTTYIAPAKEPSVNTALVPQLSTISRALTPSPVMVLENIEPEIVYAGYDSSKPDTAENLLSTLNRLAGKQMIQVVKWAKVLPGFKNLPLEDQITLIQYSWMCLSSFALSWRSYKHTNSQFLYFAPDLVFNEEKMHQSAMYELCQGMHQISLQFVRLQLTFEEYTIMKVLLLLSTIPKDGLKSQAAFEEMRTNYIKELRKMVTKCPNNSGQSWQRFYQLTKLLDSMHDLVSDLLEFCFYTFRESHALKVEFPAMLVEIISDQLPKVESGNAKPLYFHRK
The assay can be described thus: Antagonist activity at mineralocorticoid receptor (unknown origin).

For another assay, the target named is T2, Orexin receptor type 2 (Homo sapiens, UniProt O43614).
T2 sequence (O43614 whole entry): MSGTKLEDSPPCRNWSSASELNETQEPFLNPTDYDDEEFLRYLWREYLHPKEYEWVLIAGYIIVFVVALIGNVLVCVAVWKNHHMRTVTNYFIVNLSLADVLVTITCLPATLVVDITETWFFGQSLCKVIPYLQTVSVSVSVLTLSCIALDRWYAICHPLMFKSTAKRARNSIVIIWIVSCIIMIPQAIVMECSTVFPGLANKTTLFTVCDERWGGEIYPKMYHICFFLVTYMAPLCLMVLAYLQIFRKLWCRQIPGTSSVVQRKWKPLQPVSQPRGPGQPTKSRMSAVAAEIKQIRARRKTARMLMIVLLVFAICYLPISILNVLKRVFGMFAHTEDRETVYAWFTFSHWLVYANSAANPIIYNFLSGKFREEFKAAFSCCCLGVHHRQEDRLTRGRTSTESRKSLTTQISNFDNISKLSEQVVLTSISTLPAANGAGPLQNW
The assay can be described thus: Displacement of (2S)-N-(2-pyrrol-1-ylphenyl)-1-[2-[1-(tritritiomethyl)benzimidazol-2-yl]sulfanylacetyl]pyrrolidine-2-carboxamide from recombinant human OX2 receptor expressed in CHO cell membranes after 3 hrs by Topcount method.

One may read the Ki as a dissociation constant, usually derived from enzyme kinetics or from competition with a known ligand.

In turn, `Cc1ccc(-n2nccn2)c(C(=O)N2CCCC(COc3ccc(F)cn3)C2)c1` (stereo not drawn) showed a Ki in assay [1] of 96 nM. In assay [2], `O=C1COc2ccc(N3CCc4ccc(F)cc4CC3)cc2N1` registered a Ki of 196 nM. Take `Cc1ccc(-n2nccn2)c(C(=O)N2CCC[C@@H](COc3ccc(F)cn3)[C@@H]2C)c1` (relative stereo): the Ki at Orexin receptor type 2 came out at 0.2 nM.
